The values below are quoted from earlier work in US20170112824A1, “COMBINATION THERAPIES FOR THE TREATMENT OF FUNGAL INFECTIONS” (priority 2015, published 2017).

The structures appear in SMILES notation.

For series [1] the following is noted: in vivo.

As for `NC(=O)NO` [Hydroxyurea, hydroxyurea], the water solubility entry is “water-soluble”. In series [1], the absorption result was “readily absorbed”.
